{"source": "paper PMC12541891", "about": "(MicrobiologyOpen, 2025)", "key": {"[1]": {"system": "C. glabrata biofilm", "assay": "Biofilm metabolic activity by XTT-reduction assay", "format": "cell-based, Candida glabrata", "protocol": "(§1) For all bacterial strains considered in the study, biofilm was performed on a 96‐well plate inoculated with 200 µL of a bacterial suspension 1 × 10^6 CFU/mL and incubated 24 h at 37°C. After incubation for 4 h at 37°C, the medium was aspirated, non‐adherent cells were removed, washed with PBS and added with 200 µL of fresh medium. […] Similarly, to perform fungal biofilm, the different Candida species were grown for 24 h at 28°C on a multi‐wells plate, washed twice with sterile PBS, and then resuspended at 37°C in RPMI 1640 plus 10% FBS at 2.5 × 10^7 cells. After incubation for 3 h at 37°C in six‐well polystyrene plates, the medium was aspirated, non‐adherent cells were removed and washed with PBS.\n(§2) The biofilm metabolic activity was evaluated by XTT assay, that highpoints the activity through the reduction of the tetrazolium salt to formazan. After the removal of supernatant and washing with PBS, a solution of XTT‐menadione solution were added to wells. The XTT‐menadione was prepared dissolving XTT powder in prewarmed PBS (37°C) at 0.5 g/L. The solution was sterilized through a 0.22 μm pore size filter. Before each assay, the XTT solution was thawed and supplemented with menadione, a 10 mM stock dissolved in acetone to a final concentration 1 μM. Plates were incubated for 3 h at 37°C in the dark and then the absorbance was measured at 492 nm using the microplate reader, Tecan Sunrise."}, "[2]": {"system": "C. tropicalis biofilm", "assay": "Biofilm metabolic activity by XTT-reduction assay", "format": "cell-based, Candida tropicalis", "protocol": "as §1, §2"}, "[3]": {"system": "C. krusei biofilm", "assay": "Biofilm metabolic activity by XTT-reduction assay", "format": "cell-based, Candida krusei", "protocol": "as §1, §2"}, "[4]": {"system": "ESBL-Ec biofilm", "assay": "Biofilm biomass by crystal violet (CV) assay", "format": "cell-based, Escherichia coli", "details": "substance alone at MIC", "protocol": "as §1\n(§3) To quantify bacterial and Candida biofilm biomass, CV, a dye able to color the biofilm matrix, was used. Firstly, after the removal of supernatant and washing with PBS, biofilm was fixed adding 100 µL of 99% methanol for 15 min. Then, methanol was rinsed off and the plates were air‐dried. Subsequently, 100 µL of a 0.1% of CV solution were added to wells and, after 20 min of contact, the plates were washed under running tap water. To dissolve the bounded CV, 150 µL of 33% of glacial acetic acid were added to wells. The absorbance was measured at 590 nm using an automatic microplate reader, Tecan Sunrise (Tecan Group Ltd., Männedorf, Switzerland)."}, "[5]": {"system": "E. coli biofilm", "assay": "Biofilm biomass by crystal violet (CV) assay", "format": "cell-based, Escherichia coli", "details": "substance alone at MIC", "protocol": "as §1, §3"}, "[6]": {"system": "Caco-2 cell line", "assay": "MTT cytotoxicity assay", "details": "Caco-2, 24 h contact, 15-125 µg/mL tested", "protocol": "(§4) These cell lines were purchased from the American Type Culture Collection (ATCC HTB‐37, Rockville, USA) and stored in liquid nitrogen. T24 cells were cultured in RPMI, supplemented with 10% FBS, 2 mM glutamine, 100 U/mL penicillin, and 100 µg/mL streptomycin. A549 and Caco‐2 cells were cultured in DMEM, supplemented with 10% FBS, 100 U/mL penicillin and 100 μg/mL streptomycin. Cultures were incubated at 37°C in a humidified 5% CO2 atmosphere.\n(§5) In a 96‐well plate, 200 μL of cell suspension (10^4 cells/well) were added to each well and plates were incubated at 37°C, 5% CO2. […] Untreated cells were taken as control. After 24 h of treatment, culture medium was replaced with 200 μL of fresh medium added with MTT (5 mg/mL), then plates were incubated for 4 h at 37°C, 5% CO2 atmosphere. Afterward, culture medium with MTT was removed and 200 μl of DMSO were added to each well to dissolve the formazan crystals formed in living cells. After 15 min of incubation, the absorbance was measured at 570 nm, with the reference set at 620 nm, using the automatic microplate reader, Tecan Sunrise (Kumar et al. [2018]). Controls in all the experiments were: (i) wells without the substances assayed, as positive cells growth control; (ii) wells added with ethanol or DMSO in the same amounts in which the substances were suspended, as cells growth control in presence of the substances' solvents."}, "[7]": {"system": "A549 cell line", "assay": "MTT cytotoxicity assay", "details": "A549, 24 h contact, 15-125 µg/mL tested", "protocol": "as §4, §5"}, "[8]": {"system": "C. albicans biofilm", "assay": "Biofilm biomass by crystal violet (CV) assay", "format": "cell-based, Candida albicans", "protocol": "as §1, §3"}, "[9]": {"details": "biofilm in formation (3 h), substance alone at MIC"}, "[10]": {"details": "biofilm in formation, sub-MIC concentrations alone or in combination (Table 5), listed as C"}, "[11]": {"details": "preformed biofilm (24 h), substance alone at MIC"}, "[12]": {"details": "preformed biofilm, sub-MIC concentrations alone or in combination (Table 5), listed as C"}}, "data": [{"smiles": "Cc1ccc(C(C)C)cc1O", "note": "[Carvacrol, 2‐methyl‐5‐isopropyl phenol]", "values": [{"measurement": "Percentage of metabolic activity reduction", "setting": "[1]; [9]", "value": 92, "unit": "%"}, {"measurement": "Percentage of metabolic activity reduction", "setting": "[1]; [10]", "value": 70, "unit": "%"}, {"measurement": "Percentage of metabolic activity reduction", "setting": "[1]; [11]", "value": 91.0, "unit": "%"}, {"measurement": "Percentage of metabolic activity reduction", "setting": "[1]; [12]", "value": 51.2, "unit": "%"}, {"measurement": "Percentage of metabolic activity reduction", "setting": "[2]; [9]", "value": 88.7, "unit": "%"}, {"measurement": "Percentage of metabolic activity reduction", "setting": "[2]; [10]", "value": 35.0, "unit": "%"}, {"measurement": "Percentage of metabolic activity reduction", "setting": "[2]; [11]", "value": 72.8, "unit": "%"}, {"measurement": "Percentage of metabolic activity reduction", "setting": "[2]; [12]", "value": 26.1, "unit": "%"}, {"measurement": "Percentage of metabolic activity reduction", "setting": "[3]; [9]", "value": 89.4, "unit": "%"}, {"measurement": "Percentage of metabolic activity reduction", "setting": "[3]; [10]", "value": 30, "unit": "%"}, {"measurement": "Percentage of metabolic activity reduction", "setting": "[3]; [11]", "value": 89.4, "unit": "%"}, {"measurement": "Percentage of metabolic activity reduction", "setting": "[3]; [12]", "value": 25, "unit": "%"}, {"measurement": "Percentage of biomass reduction", "setting": "[4]; biofilm in formation (4 h)", "value": 55.9, "unit": "%"}, {"measurement": "Percentage of biomass reduction", "setting": "[4]; preformed biofilm (24 h)", "value": 59.6, "unit": "%"}, {"measurement": "Percentage of biomass reduction", "setting": "[5]; biofilm in formation (4 h)", "value": 70.6, "unit": "%"}, {"measurement": "Percentage of biomass reduction", "setting": "[5]; preformed biofilm (24 h)", "value": 62.2, "unit": "%"}, {"measurement": "concentrations significantly cytotoxic", "setting": "[6]", "value": "> 31000", "unit": "ng/mL"}, {"measurement": "concentrations significantly cytotoxic", "setting": "[7]", "value": "> 31000", "unit": "ng/mL"}, {"measurement": "Percentage of biomass reduction", "setting": "[8]; [10]", "value": 53.5, "unit": "%"}, {"measurement": "Percentage of biomass reduction", "setting": "[8]; [11]", "value": 36, "unit": "%"}, {"measurement": "Percentage of biomass reduction", "setting": "[8]; [12]", "value": 29.6, "unit": "%"}]}]}
